Results: patent publication US20260176262A1, “KRAS INHIBITORS, PREPARATION METHOD THEREFOR, AND PHARMACEUTICAL USE THEREOF” (ABBISKO THERAPEUTICS CO., LTD., priority 2021, published 2026)
Read-outs that look alike come from different tables or passages of the source.

Assays:
[1] = tested on: AGS cell; assay: Anti-proliferative 2D CTG assay, AGS cells; type: cell-based; details: AGS cells, incubated 3 days, CTG, read-out: AGS cell IC50
Protocol: When the cell confluence was about 80%, the cells were isolated with 0.25% trypsin. Isolated cells were resuspended in 5 mL fresh cell culture medium and centrifuged for cell collection. Meanwhile, the number of cells was also calculated. The cells were then suspended in culture medium of medium concentration. The cells were placed into a 96-well plate with 1000 cells/well for AGS and 1000 cells/well for GP2D. The 96-well plate was placed in an incubator at 37° C. and incubated overnight.
1.2 Day 1 Compound Treatment From the 10 mM stock solution, with a ratio of 1:5, 10-point serial dilutions were performed. The 10× medium containing the compound was transferred into corresponding wells of the 96 wells. The final maximum compound concentration was […] and the final DMSO concentration was 0.1%. The 96-well plate was placed in a 37° C. incubator, the AGS cells were incubated for 3 days, and the GP2D cells were incubated for 4 days.
50 μL/well of detection reagent (CTG) was added to the AGS cells, and the signal was read in an Envision machine.
The percent inhibition (%) at each compound concentration was calculated from the signal in the HPE and ZPE control wells and the fluorescence signal in the individual compound wells included in each assay plate. […] The compound concentration required for inhibitory concentration at 50% (IC50) was determined using a four-parameter logarithmic dose-response equation by testing the concentration of the compound and the inhibition percentage value. The endpoint value (IC50) of the reference compound was assessed in each experiment as a quality control measure. If the endpoint value is within three times the expected value, the experiment may be considered acceptable.

[2] = target: KRAS^G12D/cRAF (Homo sapiens, UniProt P01116, G12D); assay: KRAS G12D/cRAF binding test (Alphalisa); details: His-tagged KRAS G12D + GMPPNP, GST-tagged cRAF
Chain of KRAS^G12D/cRAF (P01116 1-188 isoform P01116-2 G12D): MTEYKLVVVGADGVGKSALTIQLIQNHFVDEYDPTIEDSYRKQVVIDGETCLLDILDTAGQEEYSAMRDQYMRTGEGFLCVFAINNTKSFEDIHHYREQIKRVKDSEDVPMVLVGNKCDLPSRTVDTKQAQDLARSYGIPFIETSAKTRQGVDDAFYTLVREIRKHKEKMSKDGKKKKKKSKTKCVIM
Protocol: The compound was dissolved in 100% DMSO at a starting concentration of 5 mM and diluted in DMSO with a 3-fold serial dilution method for a total of 8 concentration points. 1 μL of the compound or DMSO at each concentration point was added into 99 μL of the experimental buffer to obtain 10× stock solution.
• 1) 4 μL of the working mixture solution of His-tagged KRAS^G12D and GMPPNP was added to the 384-well plate. • 2) The 10× compound stock solution or 1% DMSO was added to the 384-well plate. • 3) The plate was centrifuged at 1000 rpm for 1 minute. • 4) 4 μL of GST-tagged cRAF solution was added to the 384-well plate. • 5) The plate was centrifuged at 1000 rpm for 1 minute. • 6) The plate was incubated at room temperature for 15 minutes. • 7) 10 μL of detection working solution was added to the 384-well plate. • 8) The plate was centrifuged at 1000 rpm for 1 minute. • 9) The plate was incubated at room temperature for 60 minutes. • 10) The 384-well plate was placed into Envision and assay data was obtained.
The ratio for each compound concentration was calculated from the signal of the DMSO control group contained in each assay plate and the Alphalisa signal in each compound well. The compound concentration required for inhibitory concentration at 50% (IC50) was determined using a four-parameter logarithmic dose-response equation by testing the concentration of the compound and the value of the ratio. The endpoint value (IC50) of the reference compound was assessed in each experiment as a quality control measure. If the endpoint value is within three times the expected value, the experiment may be considered acceptable.

[3] = Homo sapiens, 72 h, class symbols
[4] = Homo sapiens, 72 h, numeric values

| SMILES | IC50 [1, 3] [nM] | IC50 ([2]; class symbols) [nM] | IC50 ([1]; numeric values) [nM] | IC50 ([2]; numeric values) [nM] | IC50 [1, 4] [nM] |
| --- | --- | --- | --- | --- | --- |
| [2H]C([2H])([2H])C12CCC(CN(c3nc(OC[C@@]45CCCN4C[C@H](F)C5)nc4c(F)c(-c5cc(O)cc6ccc(F)c(C#C)c56)nc(C)c34)C1)N2 (stereo partly drawn) [Example 40, 5-ethynyl-6-fluoro-4-(8-fluoro-2-(((2R,7aS)-2-fluorotetrahydro-1H-pyrrolizin-7a(5H)-yl)methoxy)-5-methyl-4-(1-(methyl-d3)-3,8-diazabicyclo[3.2.1]octan-3-yl)pyrido[4,3-d]pyrimidin-7-yl)naphthalen-2-ol] | < 50 | < 50 |  |  |  |
| C#Cc1c(F)ccc2cc(O)cc(-c3ncc4c(N5C[C@H]6CC[C@@](C)(C5)N6)nc(OC[C@@]56CCCN5C[C@H](F)C6)nc4c3F)c12 [Example 44] |  |  | 6.1 | 19 |  |
| C#Cc1c(F)ccc2cc(O)cc(-c3ncc4c(N5C[C@@H]6CC[C@](COC)(C5)N6)nc(OC[C@@]56CCCN5C[C@H](F)C6)nc4c3F)c12 [Example 46, 5-ethynyl-6-fluoro-4-(8-fluoro-2-(((2R,7aS)-2-fluorotetrahydro-1H-pyrrolizin-7a(5H)-yl)methoxy)-4-((1R,5S)-1-(methoxymethyl)-3,8-diazabicyclo[3.2.1]octan-3-yl)pyrido[4,3-d]pyrimidin-7-yl)naphthalen-2-ol] | < 50 | 50 to 500 |  |  |  |
| [2H]C([2H])([2H])OC[C@]12CC[C@]([2H])(CN(c3nc(OC[C@@]45CCCN4C[C@H](F)C5)nc4c(F)c(-c5cc(O)cc6ccc(F)c(C#C)c56)ncc34)C1)N2 [Example 47, 5-ethynyl-6-fluoro-4-(8-fluoro-2-(((2R,7aS)-2-fluorotetrahydro-1H-pyrrolizin-7a(5H)-yl)methoxy)-4-((1S,5R)-1-((methoxy-d3)methyl)-3,8-diazabicyclo[3.2.1]octan-3-yl-5-d)pyrido[4,3-d]pyrimidin-7-yl)naphthalen-2-ol] | 50 to 500 | 50 to 500 |  |  |  |
| [2H]C([2H])([2H])OC[C@@]12CC[C@@]([2H])(CN(c3nc(OC[C@@]45CCCN4C[C@H](F)C5)nc4c(F)c(-c5cc(O)cc6ccc(F)c(C#C)c56)ncc34)C1)N2 [Example 48, 5-ethynyl-6-fluoro-4-(8-fluoro-2-(((2R,7aS)-2-fluorotetrahydro-1H-pyrrolizin-7a(5H)-yl)methoxy)-4-((1R,5S)-1-((methoxy-d3)methyl)-3,8-diazabicyclo[3.2.1]octan-3-yl-5-d)pyrido[4,3-d]pyrimidin-7-yl)naphthalen-2-ol] | < 50 | > 500 |  |  |  |
| [2H]C([2H])([2H])OC[C@]12CC[C@H](CN(c3nc(OC[C@@]45CCCN4C[C@H](F)C5)nc4c(F)c(-c5cc(O)cc6ccc(F)c(C#C)c56)nc(OC)c34)C1)N2 [Example 49, 5-ethynyl-6-fluoro-4-(8-fluoro-2-(((2R,7aS)-2-fluorotetrahydro-1H-pyrrolizin-7a(5H)-yl)methoxy)-5-methoxy-4-((1S,5R)-1-((methoxy-d3)methyl)-3,8-diazabicyclo[3.2.1]octan-3-yl)pyrido[4,3-d]pyrimidin-7-yl)naphthalen-2-ol] |  |  |  | 262 | 288 |
| [2H]C([2H])([2H])OC[C@@]12CC[C@@H](CN(c3nc(OC[C@@]45CCCN4C[C@H](F)C5)nc4c(F)c(-c5cc(O)cc6ccc(F)c(C#C)c56)nc(OCC)c34)C1)N2 [Example 52, 4-(5-ethoxy-8-fluoro-2-(((2R,7aS)-2-fluorotetrahydro-1H-pyrrolizin-7a(5H)-yl)methoxy)-4-((1R,5S)-1-((methoxy-d3)methyl)-3,8-diazabicyclo[3.2.1]octan-3-yl)pyrido[4,3-d]pyrimidin-7-yl)-5-ethynyl-6-fluoronaphthalen-2-ol] | < 50 | 50 to 500 |  |  |  |
| C#Cc1c(F)ccc2cc(O)cc(-c3ncc4c(N5C[C@H]6CC[C@@](CC)(C5)N6)nc(OC[C@@]56CCCN5C[C@H](F)C6)nc4c3F)c12 [Example 53, 4-(4-((1S,5R)-1-ethyl-3,8-diazabicyclo[3.2.1]octan-3-yl)-8-fluoro-2-(((2R,7aS)-2-fluorotetrahydro-1H-pyrrolizin-7a(5H)-yl)methoxy)pyrido[4,3-d]pyrimidin-7-yl)-5-eth ynyl-6-fluoronaphthalen-2-ol] |  |  |  | 221 | 708 |
| C#Cc1c(F)ccc2cc(O)cc(-c3ncc4c(N5C[C@@H]6CC[C@](C=C)(C5)N6)nc(OC[C@@]56CCCN5C[C@H](F)C6)nc4c3F)c12 [Example 58, 5-ethynyl-6-fluoro-4-(8-fluoro-2-(((2R,7aS)-2-fluorotetrahydro-1H-pyrrolizin-7a(5H)-yl)methoxy)-4-((1S,5S)-1-vinyl-3,8-diazabicyclo[3.2.1]octan-3-yl)pyrido[4,3-d]pyrimidin-7-yl)naphthalen-2-ol] |  |  |  | 47 | 127 |
| C#Cc1c(F)ccc2cc(O)cc(-c3ncc4c(N5C[C@H]6CC[C@@](/C=C\F)(C5)N6)nc(OC[C@@]56CCCN5C[C@H](F)C6)nc4c3F)c12 [Example 59, 5-ethynyl-6-fluoro-4-(8-fluoro-2-(((2R,7aS)-2-fluorotetrahydro-1H-pyrrolizin-7a(5H)-yl)methoxy)-4-((1R,5R)-1-((Z)-2-fluorovinyl)-3,8-diazabicyclo[3.2.1]octan-3-yl)pyrido[4,3-d]pyrimidin-7-yl)naphthalen-2-ol] |  |  |  | 15 | 13 |
| C#Cc1c(F)ccc2cc(O)cc(-c3ncc4c(N5C[C@@H]6CC[C@](/C=C\F)(C5)N6)nc(OC[C@@]56CCCN5C[C@H](F)C6)nc4c3F)c12 [Example 60, 5-ethynyl-6-fluoro-4-(8-fluoro-2-(((2R,7aS)-2-fluorotetrahydro-1H-pyrrolizin-7a(5H)-yl)methoxy)-4-((1S,5S)-1-((Z)-2-fluorovinyl)-3,8-diazabicyclo[3.2.1]octan-3-yl)pyrido[4,3-d]pyrimidin-7-yl)naphthalen-2-ol] |  |  |  | 25 | 79 |
| C#Cc1c(F)ccc2cc(O)cc(-c3ncc4c(N5C[C@H]6CC[C@@](/C=C/F)(C5)N6)nc(OC[C@@]56CCCN5C[C@H](F)C6)nc4c3F)c12 [Example 61, 5-ethynyl-6-fluoro-4-(8-fluoro-2-(((2R,7aS)-2-fluorotetrahydro-1H-pyrrolizin-7a(5H)-yl)methoxy)-4-((1R,5R)-1-((E)-2-fluorovinyl)-3,8-diazabicyclo[3.2.1]octan-3-yl)pyrido[4,3-d]pyrimidin-7-yl)naphthalen-2-ol] |  |  |  | 876 | 816 |
| C#Cc1c(F)ccc2cc(O)cc(-c3ncc4c(N5C[C@@H]6CC[C@](/C=C/F)(C5)N6)nc(OC[C@@]56CCCN5C[C@H](F)C6)nc4c3F)c12 [Example 62, 5-ethynyl-6-fluoro-4-(8-fluoro-2-(((2R,7aS)-2-fluorotetrahydro-1H-pyrrolizin-7a(5H)-yl)methoxy)-4-((1S,5S)-1-((E)-2-fluorovinyl)-3,8-diazabicyclo[3.2.1]octan-3-yl)pyrido[4,3-d]pyrimidin-7-yl)naphthalen-2-ol] |  |  |  | 18 | 27 |
